Results taken from patent publication US10966998B2, “Cancer therapy via a combination of epigenetic modulation and immune modulation” (The Johns Hopkins University, priority 2013, dated 2021).
“Also recorded” adds a separate entry of the source.

What was measured:
[1] = test system: NSCLC cell lines; test: Genome-wide expression (Agilent arrays, GSEA) and DNA methylation of cell lines treated with AZA; assay type: cell-based, human
Excerpt: For in vitro DNA methylation values, DNA was extracted from cell lines that were either untreated or treated with AZA at day 3, at the end of treatment, and day 10 (7 days post end of treatment) and analyzed by the Illumina Infinium HumanMethylation450 BeadChips (Illumina, Inc., San Diego, Calif., USA). Raw data were imported into R using the “methylumi” package from Bioconductor (22). Data points for probes with detection p-value >0.05 were masked as NA. Δ beta values (Δ beta value=beta value AZA−beta value Mock) were calculated and used to make boxplots. Heat maps were made similarly like those for the TCGA data using informative probes defined by the TCGA data.
For in vitro RNA extracted from cell lines treated with AZA, analyses were done at exactly the same time points as for DNA methylation above. Analyses from wild type colon cancer, HCT116 cells, and genetic knockout counterparts for DNA methyltransferases (DKO cells) were also performed. Expression microarrays were carried out using Agilent Human 4×44K expression arrays (Agilent Technologies, Santa Clara, Calif., USA, Cat#: G4112F). Within-array and between-array normalization was performed using Loess and Aquantile normalization, respectively (23). Median of the M values (M value Expression=log 2 [AZA/Mock] OR log 2 [DKO/HCT116]) was determined for multiple probes associated with the same gene.
For each of the eight lung cancer cell lines (H838, H1299, H358, H1270, A549, H460, HCC4006, HCC827) a ranked gene list was created (genes were sorted by decreasing M value). These eight ranked gene lists were entered in the GSEA tool (51-52) and the enrichment of both Kegg (53) and Reactome (54) pathways in these lists was calculated (default parameters). A gene set was selected when it was enriched in any of the eight cell lines (p value <0.05 and false discovery rate <0.25). The normalized enrichment scores (NES) for the gene sets in each cell line were used to create the heat maps. When a certain gene set was not significant in a cell line, it was assigned a NES of 0.
Expression and methylation data were analyzed to find genes whose re-expression was linked to demethylation after AZA treatment. Genes were selected based on a set of cut-offs, both for the methylation and expression values: A gene was considered to be re-expressed when at day 3 or day 10 the median M value of all the probes linked to that gene was higher than 0.5. Infinium probes were analyzed separately at their distances from the transcription start site for each gene examined. […] Only probes that were associated with a CpG island and that were located within 1000 bp upstream and 1000 bp downstream of the transcription start site were used in the analyses. The probes that passed these filters were validated using the TCGA methylation and expression data (see the definition of informative probes in the “Infinium DNA Methylation Data” section of Methods). […] To better understand the biological implications of the re-expressed genes, the gene lists were searched for transcription factors. Two human transcription factor lists obtained from Ravasi et al. (25) and Vaquerizas et al. (26, 27) were combined and the resulting list was matched to the lists of demethylated and re-expressed genes.
(§1) A previously validated pre-clinical model was employed to examine how AZA alters expression of key pathways in NSCLC cell lines.(29) Cells were treated in vitro with 500 nM AZA for 72 hours then harvested immediately after withdrawal of drug and again one week later for genome wide methylation and expression studies.

[2] = test system: cell surface PD-L1 in NSCLC lines H838 and H1299; test: Flow cytometry (FACS) of cell surface proteins after AZA treatment; assay type: cell-based, human; conditions: day 10
Method: Frozen cells were thawed in 37 degrees Celsius and washed once with flow-washing buffer. Aliquots of single-cell suspension were then stained with fluorescent-labeled antibodies for 15 mins at room temperature. Each sample was washed twice and re-suspended in flow-washing buffer and analyzed by FACSCalibur. The following antibodies were used: CD274 (12-5983-42 Ebiosciences), HLA abc(12-9983-42 Ebiosciences), CD276(331606 Biolegend), CD119(558934 BD), B2 microblogumin(551337BD), CD58(555921BD). Changes between AZA treated and mock cells were calculated using mean fluorescence intensities (MFI) and the formula log 2([(MFIantibody, treated)−(MFIisotype, treated)]/[(MFIantibody, mock)−(MFIisotype, mock)]).
as §1

[3] = test system: epithelial cell lines and AML cell lines; test: Gene expression in tumor-derived cell lines with AZA treatment (FIG. 2); assay type: cell-based

Nc1ncn([C@@H]2O[C@H](CO)[C@@H](O)[C@H]2O)c(=O)n1 [AZA, 5-azacytidine]
immune-related pathways by Gene Set Enrichment Analysis ([1]; 500 nM AZA for 72 hours, NSCLC cell lines): up-regulation of multiple immune-related pathways | IRAK3 expression ([1]; H838 cells): up-regulated | number of genes 4-fold or more up-regulated ([1]; H2170 cells, day 10): 114 genes | IRF7 expression increase ([1]; LUSC cell line H2170): 9 fold | CD80 and CD86 expression ([1]; NSCLC cell lines): not altered | number of genes with high baseline promoter CpG island methylation, demethylation of 25% or more and expression increased 1.4-fold or greater ([1]; NSCLC cell lines): Approximately 300 genes | IFI27 expression ([1]; NSCLC lines): up-regulated | MAVS (antiapoptotic gene) expression ([1]; NSCLC lines): down-regulation | interferon-γ receptor (IFNGR1) and STAT gene (incl. STAT1) expression ([1]; NSCLC lines): up-regulation | transcripts of HLA Class I antigens, B2M, CD58, TAP1, PMSB9 and PSMB8 ([1]; NSCLC lines): upregulates | γ-interferon expression ([1]; NSCLC lines): not induced | antiapoptotic genes BCL2 and BIRC5 (SURVIVIN) expression ([1]; especially cell line H838): decreases | autophagy gene expression ([1]; especially cell line H838): increases | PD-L1 transcript level ([1]; several NSCLC cell lines): up-regulated | cell surface PD-L1 protein level [2]: up-regulated; also recorded: increased | gene expression changes with AZA treatment [3]: pro-inflammatory changes
